Assay results: patent US5580897A, “1,2-dithiins having antifungal activity” (Shaman Pharmaceuticals, Inc., priority 1995, dated 1996)
In brackets after ≈: the same amount, converted by molar mass.

Tests used:
[1] = tested on: Aspergillus fumigatus ATCC13073 (AF); test: in vitro antifungal activity, minimum inhibitory concentration; format: cell-based
Method: (§1) The antifungal activities of representative 1,2-dithiin compounds listed below were determined in vitro using three fungal cultures: Candida albicans ATCC10259 (CA), Cryptococcus neoformans ATCC36556 (CN), and Aspergillus fumigatus ATCC13073 (AF).
(§2) The method used to determine in vitro antifungal activity is discussed in McGinnis, M. R., Laboratory Handbook of Medical Mycology, Academic Press, New York, London, p. 661 (1980); and Drouget, E.; Dupont, B.; Improvist, L.; Vivian, M. A.; and Tortorano, A. M.; "Disc Agar Diffusion and Microplate Automatized Techniques for In Vitro Evaluation of Antifungal Agents on Yeast and Sporulated Pathogenic Fungi" in In Vitro and In Vivo Evaluation of Antifungal Agents, Eds. lwata, K. and Vanden Bossche, H., Elsevier Science Publishers, New York, Oxford, p. 303 (1986).

[2] = tested on: Candida albicans ATCC10259 (CA); test: as above; format: cell-based
Method: as §1, §2

[3] = tested on: Cryptococcus neoformans ATCC36556 (CN); test: as above; format: cell-based
Method: as §1, §2

fungi = settings: natural products, literature; cited from earlier work
[4] = literature; cited from earlier work
virus = settings: literature; cited from earlier work
[5] = tested on: Candida parapsilosis CP18 (CP); test: in vitro antifungal activity, minimum inhibitory concentration; format: cell-based; settings: Lodderomyces parapsilosis
Source text: (§3) Additionally, two 1,2-dithiin compounds, 3-(hydroxymethyl)-6-[N-hydroxyiminomethyl]-1,2-dithiin and 3,6-[bis(N-hydroxyiminomethyl)]-1,2-dithiin, were chosen as compounds representative of the 1,2-dithiin class to be tested against a variety of fungi: Candida albicans A-26 (A-26), Candida albicans B311 (B311), Candida krusei GK7831 (CK), Candida parapsilosis CP18 (CP), Candida tropicalis 1525 (CT), Cryptococcus neoformans MI-106 (MI-106), Aspergillus fumigatus WM-1 (WM-1) and Trichophyton rubrum ATCC18762 (TR). The minimum inhibitory concentration (MIC) for 3-(hydroxymethyl)-6-[N-hydroxyiminomethyl]-1,2-dithiin and 3,6-[bis(N-hydroxyiminomethyl)]-1,2-dithiin are shown below in Table II.
as §2

[6] = tested on: Cryptococcus neoformans MI-106 (MI-106); test: as above; format: cell-based; settings: Cryptococcus neoformans MI-106, in vitro
Source text: as §3, §2

[7] = tested on: Candida tropicalis 1525 (CT); test: as above; format: cell-based; settings: Candida tropicalis 1525, in vitro
Source text: as §3, §2

[8] = tested on: Aspergillus fumigatus WM-1 (WM-1); test: as above; format: cell-based; settings: Aspergillus fumigatus WM-1, in vitro
Source text: as §3, §2

[9] = tested on: Trichophyton rubrum ATCC18762 (TR); test: as above; format: cell-based
Source text: as §3, §2

[10] = tested on: Candida albicans A-26 (A-26); test: as above; format: cell-based; settings: Candida albicans A-26, in vitro
Source text: as §3, §2

[11] = tested on: Candida krusei GK7831 (CK); test: as above; format: cell-based; settings: Pichia kudriavzevii
Source text: as §3, §2

[12] = tested on: Candida albicans B311 (B311); test: as above; format: cell-based
Source text: as §3, §2

MIC [1]	MIC [2]	MIC [3]	Structure (SMILES)	other results
25 µg/mL (≈ 143 µM)	12.5 µg/mL (≈ 71.7 µM)	6.3 µg/mL (≈ 36.2 µM)	O=CC1=CC=C(CO)SS1 [3-(Hydroxymethyl)-6-formyl-1,2-dithiin, 3-(Hydroxymethyl)-6-aldehydyl-1,2-dithiin]	
6.3 µg/mL (≈ 27.4 µM)	6.3 µg/mL (≈ 27.4 µM)	6.3 µg/mL (≈ 27.4 µM)	COC(=O)/C=C/C1=CC=C(CO)SS1 [3-(Hydroxymethyl)-6-[methyl propenoate-3-yl]-1,2-dithiin]	
0.8 µg/mL (≈ 4.67 µM)	0.8 µg/mL (≈ 4.67 µM)	0.8 µg/mL (≈ 4.67 µM)	N#CC1=CC=C(CO)SS1 [3-(Hydroxymethyl)-6-cyano-1,2-dithiin]	
6.3 µg/mL (≈ 31 µM)	6.3 µg/mL (≈ 31 µM)	6.3 µg/mL (≈ 31 µM)	CON=CC1=CC=C(CO)SS1 [3-(Hydroxymethyl)-6-[N-methoxyiminomethyl]-1,2-dithiin]	
			C=CC#CC#CC1=CC=C(C#CC)SS1 [Thiarubrine A]	antifungal activity (fungi): possess both antifungal and antiviral activity; cytotoxicity [4]: cytotoxic; antiviral activity (virus): possess both antifungal and antiviral activity
6.3 µg/mL (≈ 31.9 µM)	12.5 µg/mL (≈ 63.4 µM)	3.1 µg/mL (≈ 15.7 µM)	N#C/C=C/C1=CC=C(CO)SS1 [3-(Hydroxymethyl)-6-[2-cyanoethene-1-yl]-1,2-dithiin]	
25 µg/mL (≈ 102 µM)	12.5 µg/mL (≈ 51.2 µM)	6.3 µg/mL (≈ 25.8 µM)	CCOC(=O)/C=C/C1=CC=C(CO)SS1 [3-(Hydroxymethyl)-6-[ethyl propenoate-3-yl]-1,2-dithiin]	
1.6 µg/mL (≈ 8.45 µM)	1.6 µg/mL (≈ 8.45 µM)	1.6 µg/mL (≈ 8.45 µM)	OCC1=CC=C(C=NO)SS1 [3-(Hydroxymethyl)-6-[N-hydroxyiminomethyl]-1,2-dithiin]	MIC [5]: 3.1 µg/mL (≈ 16.4 µM); MIC [6]: 1.6 µg/mL (≈ 8.45 µM); MIC [7]: 6.3 µg/mL (≈ 33.3 µM); MIC [8]: 1.6 µg/mL (≈ 8.45 µM); MIC [9]: 0.8 µg/mL (≈ 4.23 µM); MIC [10]: 1.6 µg/mL (≈ 8.45 µM); MIC [11]: 6.3 µg/mL (≈ 33.3 µM); MIC [12]: 1.6 µg/mL (≈ 8.45 µM)
6.3 µg/mL (≈ 27.4 µM)	0.8 µg/mL (≈ 3.47 µM)	1.6 µg/mL (≈ 6.95 µM)	CON=CC1=CC=C(C=NOC)SS1 [3,6-Bis[N-methoxyiminomethyl]-1,2-dithiin]	
0.4 µg/mL (≈ 1.98 µM)	0.1 µg/mL (≈ 0.494 µM)	0.8 µg/mL (≈ 3.96 µM)	ON=CC1=CC=C(C=NO)SS1 [3,6-[Bis(N-hydroxyiminomethyl)]-1,2-dithiin]	MIC [5]: 0.2 µg/mL (≈ 0.989 µM); MIC [6]: 1.6 µg/mL (≈ 7.91 µM); MIC [7]: 1.6 µg/mL (≈ 7.91 µM); MIC [8]: 0.2 µg/mL (≈ 0.989 µM); MIC [9]: 0.05 µg/mL (≈ 0.247 µM); MIC [10]: 0.2 µg/mL (≈ 0.989 µM); MIC [11]: 6.3 µg/mL (≈ 31.1 µM); MIC [12]: 0.1 µg/mL (≈ 0.494 µM)
6.3 µg/mL (≈ 36.6 µM)	1.6 µg/mL (≈ 9.29 µM)	1.6 µg/mL (≈ 9.29 µM)	O=CC1=CC=C(C=O)SS1 [3-6-Bis(formyl)-1,2-dithiin, 3,6-Bis(formyl)-1,2-dithiin]	
